From ChEMBL document CHEMBL1201862, “PubChem BioAssay data set” (2004)
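In this assay, cells in 96-well plates receive the compound at five concentrations for 48 hours. Endpoints are linearly interpolated between the surrounding concentrations. At the GI50, growth is halved.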 Calls of active or inactive are those of the source. Cut-off read from the data, not from the text of the source: active = GI50 up to about 1.1 µM and inactive = higher.

Key:
Test in all cases: DTP human tumour cell line panel, 48 h
A498 = tested on: A498
A549 = tested on: A549
CAKI-1 = tested on: CAKI-1
COLO 205 = tested on: COLO 205
DU-145 = tested on: DU-145
HCT-116 = tested on: HCT-116
HT-29 = tested on: HT-29
KM12 = tested on: KM12
LOX IMVI = tested on: LOX IMVI
NCI-H460 = tested on: NCI-H460
PC-3 = tested on: PC-3
RPMI-8226 = tested on: RPMI-8226
SF-268 = tested on: SF-268
SK-MEL-28 = tested on: SK-MEL-28
SK-OV-3 = tested on: SK-OV-3
SNB-19 = tested on: SNB-19
SNB-75 = tested on: SNB-75
TK-10 = tested on: TK-10
UACC-257 = tested on: UACC-257
UO-31 = tested on: UO-31

Measured: GI50

C#C[C@]1(O)CC[C@H]2[C@@H]3CCC4=C/C(=N\OCCN(CC)CC)CC[C@]4(C)[C@H]3CC[C@@]21C
inactive: A498 10.8 µM | A549 5.77 µM | CAKI-1 7.93 µM | COLO 205 3.02 µM | DU-145 10.4 µM | HCT-116 3.44 µM | HT-29 3.74 µM | KM12 2.92 µM | LOX IMVI 3.13 µM | NCI-H460 5.08 µM | PC-3 3.18 µM | RPMI-8226 2.53 µM | SF-268 2.92 µM | SK-MEL-28 7.66 µM | SK-OV-3 9.4 µM | SNB-19 5.06 µM | SNB-75 3.05 µM | TK-10 6.7 µM | UACC-257 4.31 µM | UO-31 3.72 µM

CC(C)C(N)C(=O)NC(CCC(=O)NCCCCC(N)C(=O)NCCCNc1ccc([N+](=O)[O-])c2[nH]c3ccccc3c(=O)c12)C(N)=O (configuration not stated)
inactive: A498 59 µM | A549 27.3 µM | CAKI-1 > 100 µM | COLO 205 68.9 µM | DU-145 > 100 µM | HCT-116 21.7 µM | KM12 > 100 µM | LOX IMVI 21 µM | NCI-H460 12.5 µM | PC-3 56.6 µM | RPMI-8226 33.7 µM | SF-268 58.7 µM | SK-MEL-28 > 100 µM | SK-OV-3 44.3 µM | SNB-19 35.2 µM | SNB-75 48.9 µM | TK-10 > 100 µM | UACC-257 > 100 µM | UO-31 24.4 µM

CCOC(=O)C1c2[nH]c3ccccc3c2CCN1C(=O)c1ccc(OC)o1 (configuration not stated)
inactive: A498 > 10 µM | CAKI-1 > 10 µM | COLO 205 > 10 µM | DU-145 > 10 µM | HT-29 > 10 µM | KM12 > 10 µM | LOX IMVI > 10 µM | NCI-H460 > 10 µM | PC-3 > 10 µM | RPMI-8226 > 10 µM | SF-268 > 10 µM | SK-MEL-28 > 10 µM | SK-OV-3 > 10 µM | SNB-19 > 10 µM | SNB-75 5.78 µM | TK-10 > 10 µM | UACC-257 > 10 µM | UO-31 > 10 µM

Cc1c(NC(=S)NN)c(=O)n(-c2ccccc2)n1C
inactive: A498 > 100 µM | A549 > 100 µM | CAKI-1 > 100 µM | COLO 205 > 100 µM | DU-145 > 100 µM | HCT-116 > 100 µM | HT-29 > 100 µM | KM12 > 100 µM | LOX IMVI > 100 µM | NCI-H460 > 100 µM | PC-3 > 100 µM | RPMI-8226 > 100 µM | SF-268 > 100 µM | SK-MEL-28 > 100 µM | SK-OV-3 > 100 µM | SNB-19 > 100 µM | SNB-75 20 µM | TK-10 > 100 µM | UACC-257 > 100 µM | UO-31 > 100 µM

Cc1ccc(F)cc1NC(=O)O/N=C(\Cl)C(C)C
inactive: A498 20 µM | A549 18.9 µM | CAKI-1 1.72 µM | COLO 205 1.9 µM | DU-145 18.2 µM | HCT-116 5.28 µM | HT-29 14.6 µM | KM12 16.9 µM | LOX IMVI 1.98 µM | NCI-H460 29.2 µM | PC-3 18 µM | RPMI-8226 2.17 µM | SF-268 24.5 µM | SK-MEL-28 15.8 µM | SK-OV-3 20.2 µM | SNB-19 35.5 µM | SNB-75 14.8 µM | TK-10 3.71 µM | UACC-257 19 µM | UO-31 7.98 µM
